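Growth conditions: 96-well plates. Treatment: test compound, 48 hours, 5 concentrations. Analysis: linear interpolation between bracketing concentrations; unreached endpoints set to highest concentration. GI50 = concentration required for 50% inhibition of growth. Definition used: TGI = concentration required for complete inhibition of growth.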
Legend:
Assay in all cases: inhibition of tumour cell growth, NCI panel, 48 h
[1] = test system: MCF7 breast
[2] = test system: NCI-H522 lung
[3] = test system: OVCAR-3 ovarian
[4] = test system: SF-295 CNS
[5] = test system: UACC-257 melanoma
[6] = test system: UO-31 renal
[7] = test system: HCT-116 colon
[8] = test system: MOLT-4 leukemia
[9] = test system: NCI-H226 lung
[10] = test system: MDA-MB-435

Compound `COC(=O)c1ccc(NC(N)=NCC(C)(C)COc2ccc(C(F)(F)F)cc2)nc1` has a GI50 [1] of 1.52 µM, a TGI [1] of 3.28 µM and a GI50 [2] of 1.6 µM. For the same compound, the TGI [2] was 3.23 µM, the GI50 [3] was 1.64 µM and the TGI [3] was 3.17 µM. The GI50 [4] was 1.61 µM, the TGI [4] was 3.04 µM and the GI50 [5] was 1.69 µM. The TGI [5] was 3.27 µM, the GI50 [6] was 1.35 µM and the TGI [6] was 2.7 µM.

For `CC1NCCc2c1[nH]c1cc(O)ccc21` (stereo not given), the TGI [7] was greater than 100 µM, the TGI [8] was greater than 100 µM and the TGI [9] was greater than 100 µM. For the same compound, the TGI [3] was greater than 100 µM, the TGI [4] was greater than 100 µM and the TGI [5] was greater than 100 µM. The TGI [6] was greater than 100 µM.

`Cc1ccccc1NC(=O)C(=O)CC(=O)C1CCOC1=O` (stereo not given) was tested, and the TGI [7] was greater than 100 µM, the TGI [9] was greater than 100 µM and the TGI [2] was greater than 100 µM. For the same compound, the TGI [3] was greater than 100 µM, the TGI [4] was greater than 100 µM and the TGI [5] was greater than 100 µM. The TGI [6] was greater than 100 µM.

Work on `COC1C(O)CC(OC2CC(OC3CC(O[C@@H]4C(=O)c5c(cc6cc(OC7CC(OC8CC(O)C(O)C(C)O8)C(O)C(C)O7)c(C)c(O)c6c5O)C[C@H]4[C@H](OC)C(=O)[C@@H](O)[C@@H](C)O)OC(C)C3O)OC(C)C2O)OC1C` (stereo not given in full) yielded a TGI [7] greater than 100 µM, a TGI [8] of 0.222 µM and a TGI [9] of less than 0.215 µM. It also gave a TGI [2] of 0.0358 µM, a TGI [3] of 0.101 µM and a TGI [4] greater than 20.3 µM. For the same compound, the TGI [5] was 0.931 µM and the TGI [6] was 0.15 µM.

`O=C(Nc1cc(C(F)(F)F)cc(C(F)(F)F)c1)Nc1ccc(OCc2nnc(-c3ccc(Cl)cc3)o2)c(F)c1` gave a GI50 [7] of 0.802 µM, a TGI [7] of 3.02 µM and a GI50 [1] of 1.79 µM. The TGI [1] was 8.47 µM, the GI50 [10] was 2.6 µM and the TGI [10] was 9.78 µM. The GI50 [8] was 2.72 µM, the TGI [8] was 12 µM and the GI50 [9] was 2.93 µM. For the same compound, the TGI [9] was 12.5 µM, the GI50 [3] was 1.08 µM and the TGI [3] was 3.92 µM. It also gave a GI50 [4] of 1.14 µM, a TGI [4] of 6.91 µM and a GI50 [5] of 1.62 µM. It also gave a TGI [5] of 5.01 µM, a GI50 [6] of 1.86 µM and a TGI [6] of 8.75 µM.

Compound `CCP(C)(C)=O` has a TGI [8] greater than 100 µM, a TGI [3] greater than 100 µM and a TGI [4] greater than 100 µM. For the same compound, the TGI [5] was greater than 100 µM.

Compound `O=C1c2ccccc2C(=O)c2sc(Nc3ccc(Cl)cc3)nc21` has a TGI [7] of 3.4 µM, a GI50 [10] of 1.29 µM and a TGI [10] of 2.69 µM. It also gave a TGI [8] of 3.75 µM, a TGI [9] of 15.3 µM and a TGI [2] of 3.28 µM. For the same compound, the TGI [3] was 2.74 µM, the TGI [4] was 15.8 µM and the TGI [5] was 3.28 µM. It also gave a TGI [6] of 6.35 µM.

Work on `NC(=NCCO)c1ccc(N2CCCN(c3ccc(C(N)=NCCO)cc3)CC2)cc1` yielded a GI50 [7] greater than 100 µM, a TGI [7] greater than 100 µM and a GI50 [10] greater than 100 µM. The TGI [10] was greater than 100 µM, the GI50 [9] was greater than 100 µM and the TGI [9] was greater than 100 µM. It also gave a GI50 [3] greater than 100 µM, a TGI [3] greater than 100 µM and a GI50 [4] greater than 100 µM. For the same compound, the TGI [4] was greater than 100 µM, the GI50 [5] was greater than 100 µM and the TGI [5] was greater than 100 µM.

Compound `C/C=C/C=C/CCCCCCCCCCCCC[C@]1(OC)C=CC(CC(=O)OC)OO1` (stereo not given in full) has a TGI [7] of 29.6 µM, a GI50 [8] of 19.9 µM and a TGI [8] of 48.7 µM. The GI50 [2] was 3.8 µM, the TGI [2] was 16.6 µM and the GI50 [3] was 22.1 µM. It also gave a TGI [3] of 42.2 µM, a GI50 [4] of 18.5 µM and a TGI [4] of 34.3 µM. The TGI [5] was 45.6 µM.

For `Clc1ccc(-c2nc(C(Cl)Cl)nc3cc(-c4ccccc4)nn23)cc1`, the GI50 [7] was 1.67 µM, the TGI [7] was greater than 50 µM and the GI50 [1] was 1.47 µM. It also gave a TGI [1] greater than 50 µM, a GI50 [10] of 1.8 µM and a TGI [10] greater than 50 µM. It also gave a GI50 [8] of 1.74 µM, a TGI [8] greater than 50 µM and a GI50 [9] greater than 50 µM. It also gave a TGI [9] greater than 50 µM, a GI50 [2] of 1.52 µM and a TGI [2] greater than 50 µM. For the same compound, the GI50 [3] was 0.925 µM, the TGI [3] was 2.01 µM and the GI50 [4] was 1.45 µM. It also gave a TGI [4] greater than 50 µM, a GI50 [6] of 2.04 µM and a TGI [6] greater than 50 µM.

For `Cc1ccc(S(=O)(=O)N[C@@H](Cc2ccccc2)C(=O)CCl)cc1`, the GI50 [7] was 12.9 µM, the TGI [7] was greater than 100 µM and the GI50 [1] was 15.5 µM. It also gave a TGI [1] of 50.9 µM, a TGI [10] of 30.7 µM and a GI50 [8] of 1.99 µM. For the same compound, the TGI [8] was greater than 100 µM, the GI50 [2] was 11.5 µM and the TGI [2] was 37.1 µM. For the same compound, the GI50 [3] was 9.5 µM, the TGI [3] was 24.2 µM and the TGI [4] was 41.7 µM. The GI50 [5] was 43.2 µM, the TGI [5] was greater than 100 µM and the GI50 [6] was 16.3 µM. For the same compound, the TGI [6] was 39 µM.

Work on `CC(C)(C)c1cc(-c2c3nc(c(-c4cc(C(C)(C)C)cc(C(C)(C)C)c4)c4ccc([nH]4)c(-c4cc(C(C)(C)C)cc(C(C)(C)C)c4)c4nc(c(-c5cc(C(C)(C)C)cc(C(C)(C)C)c5)c5ccc2[nH]5)C=C4)C=C3)cc(C(C)(C)C)c1` yielded a TGI [7] greater than 100 µM, a TGI [8] greater than 100 µM and a TGI [9] greater than 100 µM. It also gave a TGI [2] greater than 100 µM, a TGI [3] greater than 100 µM and a TGI [4] greater than 100 µM. The TGI [5] was greater than 100 µM and the TGI [6] was greater than 100 µM.

With `CCCCCCCC(=O)NS(=O)(=O)c1ccccc1` the TGI [7] was greater than 100 µM, the TGI [10] was greater than 100 µM and the TGI [8] was greater than 100 µM. It also gave a TGI [2] greater than 100 µM, a TGI [3] greater than 100 µM and a TGI [4] greater than 100 µM. For the same compound, the TGI [6] was greater than 100 µM.

Work on `Cc1cc(Cl)cc2c1NC(=O)C2(O)CC(=O)c1ccc(F)cc1` (stereo not given) yielded a TGI [7] greater than 100 µM, a TGI [9] greater than 100 µM and a TGI [3] of 96.5 µM. The TGI [4] was greater than 100 µM, the TGI [5] was greater than 100 µM and the TGI [6] was greater than 100 µM.

In the case of `CCOC(=O)C1=C(C)N(NC(=O)OC)C2(N)N(NC(=O)OC)C(C)=C(C(=O)OCC)C12C#N` (stereo not given), the TGI [7] is reported as greater than 100 µM, the TGI [8] is reported as greater than 100 µM and the TGI [9] is reported as greater than 100 µM. It also gave a TGI [2] greater than 100 µM, a TGI [3] greater than 100 µM and a TGI [4] greater than 100 µM. It also gave a TGI [5] greater than 100 µM and a TGI [6] greater than 100 µM.

For `CCOC(=O)C1=C(c2ccccc2)NC(c2ccccc2)=C(C(=O)OCC)c2c1c(=O)cc[nH]c2=O`, the TGI [7] was greater than 100 µM, the TGI [8] was greater than 100 µM and the TGI [9] was greater than 100 µM. The TGI [2] was greater than 100 µM, the TGI [3] was greater than 100 µM and the TGI [4] was greater than 100 µM. For the same compound, the TGI [5] was greater than 100 µM and the TGI [6] was greater than 100 µM.

Work on `OCCSCC/C(=N\N=C(/CCSCCO)c1ccccc1)c1ccccc1` yielded a TGI [8] greater than 100 µM, a TGI [9] greater than 100 µM and a TGI [3] greater than 100 µM. For the same compound, the TGI [4] was greater than 100 µM, the TGI [5] was greater than 100 µM and the TGI [6] was greater than 100 µM.

In the case of `CCOC(=O)C(O)Cc1cnc2ccccc2n1` (stereo not given), the TGI [7] is reported as greater than 100 µM, the TGI [1] is reported as greater than 100 µM and the TGI [10] is reported as greater than 100 µM. The TGI [8] was greater than 100 µM, the TGI [2] was greater than 100 µM and the TGI [3] was greater than 100 µM. The TGI [5] was greater than 100 µM and the TGI [6] was greater than 100 µM.

For `C=C(CN(C)Cc1ccccc1)c1ccc(C(=O)Nc2ccccc2N)cc1`, the GI50 [7] was 8.6 µM, the TGI [7] was 21.9 µM and the GI50 [1] was 16.8 µM. The TGI [1] was greater than 50 µM, the GI50 [10] was 1.42 µM and the TGI [10] was 5.7 µM. The GI50 [3] was 3.56 µM, the TGI [3] was 16 µM and the GI50 [4] was 5.4 µM. The TGI [4] was 16.7 µM, the GI50 [6] was 2.08 µM and the TGI [6] was 8.41 µM.

With `COc1ccc(C(=O)C/C(=N/NC(N)=S)C(=O)Nc2ccccc2)cc1` the TGI [7] was greater than 100 µM, the TGI [8] was greater than 100 µM and the TGI [9] was greater than 100 µM. For the same compound, the TGI [3] was greater than 100 µM, the TGI [4] was greater than 100 µM and the TGI [5] was greater than 100 µM. It also gave a TGI [6] greater than 100 µM.

With `C=C[Si](C)(C)COC(=O)/C(C#N)=C/C=C/c1ccccc1` the TGI [7] was greater than 100 µM, the TGI [8] was greater than 100 µM and the TGI [9] was greater than 100 µM. It also gave a TGI [2] greater than 100 µM, a TGI [3] greater than 100 µM and a TGI [4] greater than 100 µM. It also gave a TGI [5] greater than 100 µM and a TGI [6] greater than 100 µM.
